Laboratory results: article PMC3425544, “The S100A10 Subunit of the Annexin A2 Heterotetramer Facilitates L2-Mediated Human Papillomavirus Infection” (PLoS ONE, 2012)

Tests used:
[1] = tested on: A2t (annexin A2 heterotetramer); test: EPR binding of L2 peptide to A2t; parameters: species or system human; conditions: mean of three separate experiments
Excerpt: Next, we wanted to determine if there was a specific interaction between the L2_108–126 peptide and A2t using electron paramagnetic resonance (EPR) spectroscopy. EPR is a method of magnetic resonance spectroscopy measuring unpaired electrons whose underlying basic concepts are not unlike the more widely used technique of nuclear magnetic resonance (NMR) (reviewed in [43]). When coupled with site-directed paramagnetic-labeling, such as the attachment of a moiety with an unpaired electron to a cysteine residue, EPR can be used to obtain structural information within a small vicinity of the paramagnetic-label’s positions along the protein sequence. As a paramagnetic-label becomes locally constrained, such as when bound to another protein, its spectra will drastically change as visualized by a decrease in line amplitude and increased line-broadening. Therefore, EPR provides an in vitro biochemical method that measures protein-protein interactions by monitoring changes in the spectra recorded for a labeled protein in different experimental settings.
For our purposes, an N-terminal cysteine (with a 3 native aa spacer) contained in the L2_108–126 peptide (C-IVS-[…]) was paramagnetic-labeled (an unpaired-electron-containing small molecule was cross-linked via a disulfide bond to the peptide), and its spectra were analyzed after incubation with and without purified human recombinant A2t or controls. […]
Recombinant annexin A2 was expressed in BL21(DE3) Escherichia coli cells and purified using reversible Ca^2+-dependent binding to negatively charged phospholipid vesicles followed by size exclusion chromatography. […] Concentrations of all proteins and peptides, including the A2t complex, were determined using bicinchoninic acid assays (Pierce Thermo Scientific, Rockford, IL) compared to measured absorbance of albumin standards at 562 nm. […]

annexin A2 = test: EPR binding of L2 peptide to annexin A2
Method: (§1) Recombinant annexin A2 was expressed in BL21(DE3) Escherichia coli cells and purified using reversible Ca^2+-dependent binding to negatively charged phospholipid vesicles followed by size exclusion chromatography. A pET23A vector containing the S100A10 sequence (a gift from Volker Gerke) was expressed in BL21(DE3) cells as previously described. Both proteins were stored at 4°C in 20 mM HEPES buffer at pH 7.4, containing 100 mM NaCl with the addition of 1 mM dithiothreitol. Concentrations of all proteins and peptides, including the A2t complex, were determined using bicinchoninic acid assays (Pierce Thermo Scientific, Rockford, IL) compared to measured absorbance of albumin standards at 562 nm. Purified annexin A2 and S100A10 were combined at a molar ratio of 1∶1 and concentrated to over 8 µg/µl. The mixture was incubated overnight at 4°C, and then loaded onto a superdex 200 10/300 GL (GE Healthcare USA) column equilibrated in the previously mentioned HEPES buffer. The eluted A2t peak was collected and subjected to peptide binding assays.
The L2_108–126 peptides used in our EPR studies were synthesized with a cysteine at the N-terminus, and followed by a spacer of 3 physiological amino acids (C-IVS) preceding the canonical L2_108–126 and L2 scrambled sequences (C-IVS-[…] and C-IVS-[…] respectively). Peptides were combined with 8× molar excess paramagnetic label (1-oxyl-2, 2, 5, 5-tetramethyl-Δ3-pyrroline-3-methyl) (R1) methanethiosulfonate (MTSL), (Toronto Research Chemicals, Canada) and left to react overnight at 4°C. Free label was removed by gel filtration (PD10 GE, United Kingdom). All peptides were solubilized into HEPES buffer. For competition assays, the scrambled peptide was non-paramagnetic labeled with an N-acetylated MTSL paramagnetic-label analog (1-acetyl-2,2,5,5- tetramethyl-Δ3-pyrroline-3-methyl) (R1′) at an 8× molar excess to emulate the paramagnetic label on control peptides. Binding interactions were examined by combining paramagnetically-labeled L2 peptide with A2t, BSA, ANXA2, or S100A10 (20 µM, 100 µM, 100 µM, 100 µM, and 100 µM respectively) in 10 µL volumes of the HEPES buffer, confined by glass capillaries, and measured at room temperature over a period of 24 hours using a Bruker EMX X-band EPR spectrometer. For the cysteine blocked S100A10, S100A10 was treated with R1′ and excess label was removed via gel filtration (see above) before the addition of paramagnetic labeled peptides. […] To quantify the amount of bound peptide spectra of all tested proteins in combination with the L2_108–126 or ScrL2 peptides were compared to the spectra of L2_108–126 or ScrL2 peptides alone in solution using a spectra analyzing software (EPR 130, University of California, Los Angeles). […]

S100A10 subunit of A2t = test: EPR binding of L2 peptide to S100A10
Method: as §1
The L2_108–126 peptides used in our EPR studies were synthesized with a cysteine at the N-terminus, and followed by a spacer of 3 physiological amino acids (C-IVS) preceding the canonical L2_108–126 and L2 scrambled sequences (C-IVS-[…] and C-IVS-[…] respectively). Peptides were combined with 8× molar excess paramagnetic label (1-oxyl-2, 2, 5, 5-tetramethyl-Δ3-pyrroline-3-methyl) (R1) methanethiosulfonate (MTSL), (Toronto Research Chemicals, Canada) and left to react overnight at 4°C. Free label was removed by gel filtration (PD10 GE, United Kingdom). All peptides were solubilized into HEPES buffer. For competition assays, the scrambled peptide was non-paramagnetic labeled with an N-acetylated MTSL paramagnetic-label analog (1-acetyl-2,2,5,5- tetramethyl-Δ3-pyrroline-3-methyl) (R1′) at an 8× molar excess to emulate the paramagnetic label on control peptides. Binding interactions were examined by combining paramagnetically-labeled L2 peptide with A2t, BSA, ANXA2, or S100A10 (20 µM, 100 µM, 100 µM, 100 µM, and 100 µM respectively) in 10 µL volumes of the HEPES buffer, confined by glass capillaries, and measured at room temperature over a period of 24 hours using a Bruker EMX X-band EPR spectrometer. For the cysteine blocked S100A10, S100A10 was treated with R1′ and excess label was removed via gel filtration (see above) before the addition of paramagnetic labeled peptides. The experiments were done in triplicate with measurements taken at 12 db, in 5 scan intervals. All spectra were normalized to the same number of scans. To quantify the amount of bound peptide spectra of all tested proteins in combination with the L2_108–126 or ScrL2 peptides were compared to the spectra of L2_108–126 or ScrL2 peptides alone in solution using a spectra analyzing software (EPR 130, University of California, Los Angeles). By subtracting the alone peptide spectra from that of the combined samples we derive the spectra of the bound spectra, and based on double integration, relate this spectra to a concentration of the peptide that bound to the target protein.

[2] = tested on: surface of HeLa, SiHa and CaSki cells; conditions: ref [28], cited from earlier work
HepG2 cell line = conditions: ref [28]; cited from earlier work
Excerpt: Nonetheless, the link between HSV and H ...

In the case of “C-IVS-LVEETSFIDAGAPTSVPSI [L2_108–126, HPV16 L2 aa 108–126 peptide with N-terminal cysteine and IVS spacer]”, the “relative % bound to A2t” value ([1]; 20 µM paramagnetic-labeled (MTSL) L2 peptide, 100 µM A2t, HEPES pH 7.4, room temperature) is reported as 78.0%, the “relative % bound to A2t in presence of ScrL2” value ([1]; non-paramagnetic-labeled ScrL2 to WT L2_108–126 5∶1 molar ratio) is reported as 75.8% and the “relative % bound to annexin A2” value (annexin A2; 20 µM peptide, 100 µM ANXA2, mean of three separate experiments) is reported as 23.6%. For the same substance, the “interaction with annexin A2 subunit” value (annexin A2; discussion) was “minimal interaction”, the “relative % bound to annexin A2 in presence of ScrL2” value (annexin A2; scrambled peptide 5∶1, mean of three separate experiments) was 17.7% and the “interaction with S100A10 subunit” value (S100A10 subunit of A2t; EPR, discussion) was “very strong interaction”. For the same substance, the “relative % bound to S100A10” value (S100A10 subunit of A2t; EPR, 20 µM peptide, 100 µM S100A10, mean of three separate experiments) was 92.5%, the “relative % bound to cysteine-blocked S100A10” value (S100A10 subunit of A2t; EPR, S100A10 cysteine-blocked with R1′ (αCys-S100A10), paramagnetic-labeled peptide, mean of three separate experiments) was 73.1% and the “relative % bound to S100A10 in presence of ScrL2” value (S100A10 subunit of A2t; EPR, scrambled peptide 5∶1, mean of three separate experiments) was 91.0%. For the same substance, the “relative binding constant (K), S100A10” value (S100A10 subunit of A2t; from EPR percent bound, association constant) was 150000 M⁻¹, the “binding to cell lines” value ([2]; SiHa, CaSki, [29] (b5), [23], [28]) was “can bind to the surface of several human cell lines” and the “binding to HeLa cells with substitutions at aa 108–111” value ([2]; aa 108–111 substituted (LVEE to GGDD)) was “decrease the binding”. The “binding to A2t-deficient HepG2 cells vs cervical cancer cell lines” value (HepG2 cell line) was “bind significantly less”.
